Reference: US9708314B2, “Heterocyclic amide compound” (NISSAN CHEMICAL INDUSTRIES, LTD., priority 2013, dated 2017)

Experiments:
Type in all cases: in vivo
[1] = tested on: Echinochloa oryzacola Vasing.; assay: Test Example 1: herbicidal activity, application before weed generation in submerged conditions; conditions: Application herbicide amount 320 g/ha; Seventeenth Table
Procedure, shortened: (§1)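 Water-diluted emulsion formulation is applied onto flood water (4 cm deep) covering alluvial soil on the day weed seeds are sown, after transplanting 2.5 leaf stage rice. Rates are expressed per hectare. Injury or control is graded 0–5 three weeks later.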

Monochoria vaginalis = assay: as above; conditions: Application herbicide amount 320 g/ha; Seventeenth Table
Procedure, shortened: as §1

Scirpus juncoides = assay: as above; conditions: Application herbicide amount 320 g/ha; Seventeenth Table
Procedure, shortened: as §1

Cyperus difformis = assay: Test Example 3: herbicidal effect by application to foliage (Wagner pot, water depth 0.1-0.5 cm); conditions: Nineteenth Table; application to foliage; application herbicide amount 320 g/ha
Procedure, shortened: (§2)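 Plants are raised 14 days from seed in flooded-surface Wagner pots at 25–30 °C, sprayed on stems and leaves with diluted emulsion at a predetermined rate, and rated three weeks on using a 0–5 herbicidal-ratio scale (5 ≥90%).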

[2] = tested on: Echinochloa crus-galli var. crus-galli; assay: as above; conditions: Nineteenth Table; application to foliage; application herbicide amount 320 g/ha
Procedure, shortened: as §2

Leptochloa chinensis = assay: as above; conditions: Nineteenth Table; application to foliage; application herbicide amount 320 g/ha
Procedure, shortened: as §2

| SMILES | A: Echinochloa oryzicola Vasing. (herbicidal effect grade) [1] | C: Monochoria vaginalis (herbicidal effect grade) (Monochoria vaginalis) | B: Scirpus juncoides (herbicidal effect grade) (Scirpus juncoides) | E (herbicidal effect grade) (Cyperus difformis) | H (herbicidal effect grade) [2] | D (herbicidal effect grade) (Leptochloa chinensis) |
| --- | --- | --- | --- | --- | --- | --- |
| Cc1cc(-c2nnc3c(C(=O)Nc4nnnn4C)ccc(C(F)(F)F)n23)no1 [2-017] | 5 (Herbicidal ratio of 90% or more (almost completely withered)) | 4 (Herbicidal ratio of 70% or more and less than 90%) | 3 (Herbicidal ratio of 40% or more and less than 70%) | 5 (Herbicidal ratio of 90% or more (almost completely withered)) | 5 (Herbicidal ratio of 90% or more (almost completely withered)) | 5 (Herbicidal ratio of 90% or more (almost completely withered)) |
| CN(c1nnc2c(C(=O)Nc3nnco3)ccc(C(F)(F)F)n12)C1CCCCC1 [1-123] | 5 (Herbicidal ratio of 90% or more (almost completely withered)) | 4 (Herbicidal ratio of 70% or more and less than 90%) | 4 (Herbicidal ratio of 70% or more and less than 90%) | 4 (Herbicidal ratio of 70% or more and less than 90%) | 4 (Herbicidal ratio of 70% or more and less than 90%) | 4 (Herbicidal ratio of 70% or more and less than 90%) |
| CCN(CC)c1nnc2c(C(=O)Nc3nnc(C)o3)ccc(C(F)(F)F)n12 [1-135] | 3 (Herbicidal ratio of 40% or more and less than 70%) | 4 (Herbicidal ratio of 70% or more and less than 90%) | 4 (Herbicidal ratio of 70% or more and less than 90%) | 2 (Herbicidal ratio of 20% or more and less than 40%) | 5 (Herbicidal ratio of 90% or more (almost completely withered)) | 4 (Herbicidal ratio of 70% or more and less than 90%) |
| Cc1nnc(NC(=O)c2ccc(C(F)(F)F)n3c(N4CC[S+]([O-])CC4)nnc23)o1 [1-119] | 2 (Herbicidal ratio of 20% or more and less than 40%) | 0 (Herbicidal ratio of 5% or less (almost no effect)) | 1 (Herbicidal ratio of 5% or more and less than 20%) | 2 (Herbicidal ratio of 20% or more and less than 40%) | 5 (Herbicidal ratio of 90% or more (almost completely withered)) | 5 (Herbicidal ratio of 90% or more (almost completely withered)) |
| Cc1nnc(NC(=O)c2ccc(C(F)(F)F)n3c(SCc4ccccc4)nnc23)o1 [1-113] | 4 (Herbicidal ratio of 70% or more and less than 90%) | 2 (Herbicidal ratio of 20% or more and less than 40%) | 3 (Herbicidal ratio of 40% or more and less than 70%) | 3 (Herbicidal ratio of 40% or more and less than 70%) | 4 (Herbicidal ratio of 70% or more and less than 90%) | 3 (Herbicidal ratio of 40% or more and less than 70%) |
| CC(C)Sc1nnc2c(C(=O)Nc3nnnn3C)ccc(C(F)(F)F)n12 [2-025] | 5 (Herbicidal ratio of 90% or more (almost completely withered)) | 5 (Herbicidal ratio of 90% or more (almost completely withered)) | 5 (Herbicidal ratio of 90% or more (almost completely withered)) | 5 (Herbicidal ratio of 90% or more (almost completely withered)) | 5 (Herbicidal ratio of 90% or more (almost completely withered)) | 5 (Herbicidal ratio of 90% or more (almost completely withered)) |
| CSc1nnc2c(C(=O)Nc3nnnn3C)ccc(C(F)(F)F)n12 [2-013] | 5 (Herbicidal ratio of 90% or more (almost completely withered)) | 5 (Herbicidal ratio of 90% or more (almost completely withered)) | 4 (Herbicidal ratio of 70% or more and less than 90%) | 5 (Herbicidal ratio of 90% or more (almost completely withered)) | 5 (Herbicidal ratio of 90% or more (almost completely withered)) | 5 (Herbicidal ratio of 90% or more (almost completely withered)) |
| COc1ccc(Cc2nnc3c(C(=O)Nc4nnco4)ccc(C(F)(F)F)n23)cc1 [1-151] | 5 (Herbicidal ratio of 90% or more (almost completely withered)) | 3 (Herbicidal ratio of 40% or more and less than 70%) | 5 (Herbicidal ratio of 90% or more (almost completely withered)) | 4 (Herbicidal ratio of 70% or more and less than 90%) | 5 (Herbicidal ratio of 90% or more (almost completely withered)) | 4 (Herbicidal ratio of 70% or more and less than 90%) |
| Cc1nnc(NC(=O)c2ccc(C(F)(F)F)n3c(N4CCCC4)nnc23)o1 [1-136] | 5 (Herbicidal ratio of 90% or more (almost completely withered)) | 3 (Herbicidal ratio of 40% or more and less than 70%) | 3 (Herbicidal ratio of 40% or more and less than 70%) | 0 (Herbicidal ratio of 5% or less (almost no effect)) | 4 (Herbicidal ratio of 70% or more and less than 90%) | 4 (Herbicidal ratio of 70% or more and less than 90%) |
| Cc1nnc(NC(=O)c2ccc(C(F)(F)F)n3c(SCC(F)(F)F)nnc23)o1 [1-124] | 3 (Herbicidal ratio of 40% or more and less than 70%) | 1 (Herbicidal ratio of 5% or more and less than 20%) | 3 (Herbicidal ratio of 40% or more and less than 70%) | 4 (Herbicidal ratio of 70% or more and less than 90%) | 4 (Herbicidal ratio of 70% or more and less than 90%) | 4 (Herbicidal ratio of 70% or more and less than 90%) |
| O=C(Nc1nnco1)c1ccc(C(F)(F)F)n2c(N3CCOCC3)nnc12 [1-110] | 5 (Herbicidal ratio of 90% or more (almost completely withered)) | 4 (Herbicidal ratio of 70% or more and less than 90%) | 4 (Herbicidal ratio of 70% or more and less than 90%) | 5 (Herbicidal ratio of 90% or more (almost completely withered)) | 5 (Herbicidal ratio of 90% or more (almost completely withered)) | 5 (Herbicidal ratio of 90% or more (almost completely withered)) |
| COc1ccc(CN(C)c2nnc3c(C(=O)Nc4nnc(C)o4)ccc(C(F)(F)F)n23)cc1 [1-167] | 4 (Herbicidal ratio of 70% or more and less than 90%) | 0 (Herbicidal ratio of 5% or less (almost no effect)) | 2 (Herbicidal ratio of 20% or more and less than 40%) | – | 1 (Herbicidal ratio of 5% or more and less than 20%) | 2 (Herbicidal ratio of 20% or more and less than 40%) |
| COc1ccc(N(C)c2nnc3c(C(=O)Nc4nnc(C)o4)ccc(C(F)(F)F)n23)cc1 [1-165] | 4 (Herbicidal ratio of 70% or more and less than 90%) | 4 (Herbicidal ratio of 70% or more and less than 90%) | 3 (Herbicidal ratio of 40% or more and less than 70%) | – | 5 (Herbicidal ratio of 90% or more (almost completely withered)) | 4 (Herbicidal ratio of 70% or more and less than 90%) |
| COC1CCC(c2nnc3c(C(=O)Nc4nnc(C)o4)ccc(C(F)(F)F)n23)CC1 (stereo not drawn) [1-169] | 5 (Herbicidal ratio of 90% or more (almost completely withered)) | 4 (Herbicidal ratio of 70% or more and less than 90%) | 4 (Herbicidal ratio of 70% or more and less than 90%) | – | 5 (Herbicidal ratio of 90% or more (almost completely withered)) | 4 (Herbicidal ratio of 70% or more and less than 90%) |
